From ChEMBL document CHEMBL1201862, “PubChem BioAssay data set” (2004)
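Five concentrations, 48 hours, 96-well plates. GI50 = concentration required for 50% inhibition of growth.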 Active and inactive are the calls of the source. Cut-off read from the data, not from the text of the source: active = GI50 up to about 1.1 µM and inactive = higher.

Tests used:
Assay in all cases: NCI tumour cell line growth inhibition, 48 h
[1] = test system: A549
[2] = test system: CAKI-1
[3] = test system: DU-145
[4] = test system: HCT-15
[5] = test system: HL-60
[6] = test system: HOP-92
[7] = test system: K562
[8] = test system: KM12
[9] = test system: M14
[10] = test system: MDA-MB-231
[11] = test system: OVCAR-5
[12] = test system: RXF 393
[13] = test system: SF-539
[14] = test system: SK-MEL-28
[15] = test system: SK-MEL-2
[16] = test system: SK-OV-3
[17] = test system: SNB-75
[18] = test system: SW-620
[19] = test system: UACC-257
[20] = test system: UO-31

| Compound | GI50 [1] | GI50 [2] | GI50 [3] | GI50 [4] | GI50 [5] | GI50 [6] | GI50 [7] | GI50 [8] | GI50 [9] | GI50 [10] | GI50 [11] | GI50 [12] | GI50 [13] | GI50 [14] | GI50 [15] | GI50 [16] | GI50 [17] | GI50 [18] | GI50 [19] | GI50 [20] |
| --- | --- | --- | --- | --- | --- | --- | --- | --- | --- | --- | --- | --- | --- | --- | --- | --- | --- | --- | --- | --- |
| COC(=O)c1cc2c(cc1Cl)Sc1nnc(Nc3ccccc3)n1S2(=O)=O | 8470 nM (inactive) | 2420 nM (inactive) | 1660 nM (inactive) | 2340 nM | 2770 nM (inactive) | 1420 nM (inactive) | 3410 nM (inactive) | 2710 nM (inactive) | 4410 nM (inactive) | 3980 nM (inactive) | 7930 nM (inactive) | 2210 nM (inactive) | 2150 nM (inactive) | 3150 nM (inactive) | 2810 nM (inactive) | 6750 nM (inactive) | 5120 nM (inactive) | 3390 nM (inactive) | 7660 nM (inactive) | 2480 nM (inactive) |
| CCc1nc(N)nc(N)c1-c1ccc(Cc2ccccc2)c([N+](=O)[O-])c1 | < 10 nM (active) | 18.3 nM (active) | 58.5 nM (active) | < 10 nM | < 10 nM (active) | 1170 nM (inactive) | < 10 nM (active) | 76.2 nM (active) | 14.4 nM (active) | 38300 nM (inactive) | > 55000 nM (inactive) | 24500 nM (inactive) | 47.5 nM (active) | > 39500 nM (inactive) | 33900 nM (inactive) | 7870 nM (inactive) | 23300 nM (inactive) | < 10 nM (active) | 23600 nM (inactive) | 124 nM (active) |
